# Entries after “also recorded” stand apart in the source; their conditions may differ. Like-named read-outs stand apart in the source and are kept apart here.
# Tests used:
# [1] = apparent or measured pKa of ionizable lipid in the lipid nanoparticle, TNS assay; format: physicochemical; settings: predicted from c-pKa and measured pKa of CICL-207
# [2] = as above; format: physicochemical
# Protocol: The apparent or measured pKa of ionizable lipid in the lipid nanoparticle was determined using 6-(p-toluidino)-2-naphthalenesulfonic acid sodium salt (TNS salt, Toronto Research Chemicals, Toronto, ON, Canada). Lipid nanoparticles were diluted in 1×Dulbecco's PBS to a concentration of 1 mM total lipids. TNS salt was prepared as a 1 mg/mL stock solution in DMSO and then further diluted using distilled water to a working solution of 60 μg/mL ([…]). Diluted lipid nanoparticle samples were further diluted to 90 μM total lipids in 165 μL of buffered solution containing 10 mM HEPES, 10 mM MES, 10 mM ammonium acetate, 130 mM NaCl, and final TNS concentration of 1.33 μg/mL (4 μM) with the pH ranging from 3.5 to 12.2. Following pipette mixing and incubation at room temperature in the dark for 15 min, fluorescence intensity was measured at room temperature in a BioTek Synergy H1 plate reader using excitation and emission wavelengths of 321 and 445 nm, respectively. The fluorescence signal was blank subtracted and plotted as a function of the pH, then analyzed using a nonlinear (Boltzmann) regression analysis with the apparent pKa determined as the pH giving rise to half maximal fluorescence intensity as calculated by the Henderson-Hasselbalch equation.
# splenic T cells = assay: in vivo transfection with mCherry mRNA by CD5-targeted tLNP, splenic T cells; settings: C57BL/6 mice; for performance of tLNP: transfection rate and expression level (MESF) / effect of ionizable cationic lipid content (50%, 58%, 62%, 65%) on transfection rate: in words; for transfection rate in spleen T cells: 10 μg mRNA tail vein, 24 hours
# Protocol: (§1) To assess the ability of a constrained ionizable cationic lipids to facilitate in vivo transfection of T cells with mCherry mRNA (SEQ ID NO. 5), tLNP incorporating CICL-207, or for comparison, CICL-1, and conjugated to an anti-mouse CD5 antibody were prepared and administered to C57BL/6 mice. The tLNP comprised either CICL-207 or CICL-1, DSPC, cholesterol, either DMG-PEG(2000) or DSG-PEG(2000), and DSPE-PEG(2000)-maleimide in the proportions indicated in Table 7 (below) and an N/P ratio of 6. CICL-1 has the structure:
# Briefly, to prepare the tLNP, N1-methylpseudouridine (m1ψ)-substituted mCherry mRNA was encapsulated in LNP using a self-assembly process in which an aqueous solution of mRNA at pH 3.5 was rapidly mixed with a solution of lipids dissolved in ethanol, then followed by stepwise phosphate and Tris buffer dilution and tangential flow filtration (TFF) purification. Then an anti-CD5 mAb was conjugated to the above LNP to generate tLNP. Purified rat anti-mouse CD5 antibody, clone 53-7.3 (BioLegend), was coupled to LNP via N-succinimidyl S-acetylthioacetate (SATA)-maleimide conjugation chemistry. Briefly, LNPs with DSPE-PEG(2000)-maleimide incorporated were formulated and stored at 4° C. on the day of conjugation. The antibody was modified with SATA (Sigma-Aldrich) to introduce sulfhydryl groups at accessible lysine residues allowing conjugation to maleimide. SATA was deprotected using 0.5 M hydroxylamine followed by removal of the unreacted components by G-25 Sephadex Quick Spin Protein columns (Roche Applied Science, Indianapolis, IN). The reactive sulfhydryl group on the antibody was then conjugated to maleimide moieties on the LNPs using thioether conjugation chemistry. Purification was performed using Sepharose CL-4B gel filtration columns (Sigma-Aldrich). tLNPs (LNPs conjugated with a targeting antibody) were frozen at −80° C.
# The mice were administered tLNPs containing 10 μg of mRNA by tail vein injection and tissue was harvested 24 hours later. […] These same trends have been observed with tLNP comprising CICL-1 as the ionizable lipid (data not shown). The tLNP comprising 58% ionizable cationic lipid had similarly low transfection rates (<4%) for CD45^− liver cells (hepatocytes)(FIG. 1B). […]
# [3] = test system: luciferase mRNA expression in liver, spleen and other organs; assay: luciferase biodistribution (organ bioluminescence) of LNP and CD5-targeted tLNP; format: in vivo, C57Bl/6 mice; settings: 2 μg mRNA/animal
# Protocol: LNP and tLNP with the F9 and F50 composition were prepared as example 66 described, except the payload consisted of mRNA encoding luciferase (SEQ ID NO. 4).
# Eight-week-old female C57BI)6 mice (Charles River Laboratories) were intravenously injected with […] or F50 LNPs or CD5-targeted tLNPs encapsulating mRNA encoding luciferase at a dose of 2 μg mRNA/animal via the tail vein. At 6 hours post-injection, prone and supine bioluminescence images were collected from all mice (FIGS. 8A-8B). Following whole-animal imaging, the mice were sacrificed, and the following tissues were collected: liver, spleen, lung, kidneys (both), heart, bone marrow (femur), lymph nodes (left and right inguinal), and brain. Tissues were placed into luciferin pre-filled black polystyrene plates with spacing between tissues, and bioluminescent images were collected at 6 hours and 24 hours post-injection (FIGS. 8C-8D, respectively).
# [4] = tolerability of F50 LNP: liver enzymes, acute phase proteins, cytokines; format: in vivo, Sprague Dawley rats; settings: rats, intravenous, up to 8 mg/kg
# Protocol: A study in which various dosages of undecorated F50 LNP encapsulating mCherry mRNA (up to 8 mg/kg) were administered intravenously to 8-week-old male Sprague Dawley rats (Charles River Laboratories). Liver enzymes in serum were determined (FIGS. 12A-B). Acute phase protein (FIGS. 12C-E) and cytokine levels (FIGS. 12F-H) were assessed in plasma by Luminex assay.
# [5] = tolerability of LNP-containing compositions in rat (general statements); settings: tLNP, single doses
# [6] = test system: liver Kupffer cells (CD45+/CD11+ liver cells); assay: in vivo transfection with mCherry mRNA by CD5-targeted tLNP, liver Kupffer cells; settings: C57BL/6 mice, 10 μg mRNA tail vein, 24 hours
# Protocol: as §1
# Briefly, to prepare the tLNP, N1-methylpseudouridine (m1ψ)-substituted mCherry mRNA was encapsulated in LNP using a self-assembly process in which an aqueous solution of mRNA at pH 3.5 was rapidly mixed with a solution of lipids dissolved in ethanol, then followed by stepwise phosphate and Tris buffer dilution and tangential flow filtration (TFF) purification. Then an anti-CD5 mAb was conjugated to the above LNP to generate tLNP. […]
# Further ionizable cationic lipids according to Formula M2 were incorporated into tLNP and the ability of the tLNP to transfect cells in vivo assessed essentially as described in the preceding Example. Their physicochemical properties as determined in various experiments are compiled in Table 10.
# [7] = read-out: measured pKa (in tLNP formulation)
# [8] = Table 11, in tLNP formulation, read-out: Measured pKa
smiles,measurement,setting,value
CCCCCCCCC(=O)OCC(COC(=O)CCCCCCCC)CC(=O)OC[C@@H]1C[C@@H](OC(=O)CC(COC(=O)CCCCCCCC)COC(=O)CCCCCCCC)CN1C(=O)OCCN(CCC)CCC [CICL-207-109],measured pKa in formulation (prediction),[1],close to the desired pKa=6-7 midpoint
"CCCCCCCCC(=O)OCC(COC(=O)CCCCCCCC)CC(=O)O[C@@H]1C[C@H](OC(=O)CC(COC(=O)CCCCCCCC)COC(=O)CCCCCCCC)CN(C(=O)OCCN(C)C)C1 [CICL-238, (((Rel-(3R,5S)-1-((2-(dimethylamino)ethoxy)carbonyl)piperidine-3,5-diyl)bis(oxy))bis(2-oxoethane-2,1-diyl))bis(propane-2,1,3-triyl) tetranonanoate]",pKa,[2]; [7],7.09
same,performance of tLNP: transfection rate and expression level (MESF),splenic T cells,3 of the 4 poorest performing tLNP
"CCCCCCCCC(=O)OCC(COC(=O)CCCCCCCC)CC(=O)OC[C@@H]1C[C@@H](OC(=O)CC(COC(=O)CCCCCCCC)COC(=O)CCCCCCCC)CN1C(=O)OCCN(C)C [CICL-207, 2-(2-(((2S,4R)-1-((2-(dimethylamino)ethoxy)carbonyl)-4-((4-(nonanoyloxy)-3((nonanoyloxy)methyl)butanoyl)oxy)pyrrolidin-2-yl)methoxy)-2-oxoethyl)propane-1,3-diyl dinonanoate]",bioluminescence in non-target organs,[3],generally producing the least bioluminescence
same,"effect of ionizable cationic lipid content (50%, 58%, 62%, 65%) on transfection rate",splenic T cells,greater for CICL-207 than for CICL-225 in splenic T cells; also recorded: decreased performance
same,performance of tLNP: transfection rate and expression level (MESF),splenic T cells,best performing composition; also recorded: somewhat more desirable transfection rates
same,tolerability,[4],well tolerated
same,single dose generally well tolerated,[5],at least 8 mg/kg
same,transfection rate for liver Kupffer cells (CD45+/CD11+),[6],similarly low levels
"CCCCCCCCC(=O)OCC(COC(=O)CCCCCCCC)CC(=O)O[C@H]1CN(C(=O)OCCN(C)C)C[C@H]1OC(=O)CC(COC(=O)CCCCCCCC)COC(=O)CCCCCCCC [CICL-216, (((Rel-(3S,4R)-1-((2-(dimethylamino)ethoxy)carbonyl)pyrrolidine-3,4-diyl)bis(oxy))bis(2-oxoethane-2,1-diyl))bis(propane-2,1,3-triyl) tetranonanoate]",measured pKa (in tLNP formulation),[2],fell outside the range of 6 to 7
same,performance of tLNP: transfection rate and expression level (MESF),splenic T cells,3 of the 4 poorest performing tLNP
"CCCCCCCCC(=O)OCC(COC(=O)CCCCCCCC)CC(=O)OC[C@@H]1C[C@H](OC(=O)CC(COC(=O)CCCCCCCC)COC(=O)CCCCCCCC)CN1C(=O)OCCN(C)C [CICL-224, 2-(2-(((2S,4S)-1-((2-(dimethylamino)ethoxy)carbonyl)-4-((4-(nonanoyloxy)-3-((nonanoyloxy)methyl)butanoyl)oxy)pyrrolidin-2-yl)methoxy)-2-oxoethyl)propane-1,3-diyl dinonanoate]",pKa,[2]; [8],6.98
same,pKa,[2]; [7],~7
same,transfection rate in spleen T cells,splenic T cells,below 40%
"CCCCCCCCC(=O)OCC(COC(=O)CCCCCCCC)CC(=O)O[C@H]1C=C[C@H](OC(=O)CC(COC(=O)CCCCCCCC)COC(=O)CCCCCCCC)CN(C(=O)OCCN(C)C)C1 (racemic) [CICL-218, (((Rel-(3S,6S)-1-((2-(dimethylamino)ethoxy)carbonyl)-2,3,6,7-tetrahydro-1H-azepine-3,6-diyl)bis(oxy))bis(2-oxoethane-2,1-diyl))bis(propane-2,1,3-triyl) tetranonanoate]",pKa,[2]; [8],6.07
same,pKa,[2]; [7],6.11
same,transfection rate in spleen T cells,splenic T cells,ca. 20%
CCCCCCCCC(=O)OCC(COC(=O)CCCCCCCC)CC(=O)OC[C@@H]1C[C@@H](OC(=O)CC(COC(=O)CCCCCCCC)COC(=O)CCCCCCCC)CN1C(=O)OCCN(C)c1ccncc1 [CICL-207-130],measured pKa in formulation (prediction),[1],close to the desired pKa=6-7 midpoint
CCCCCCCCC(=O)OCC(COC(=O)CCCCCCCC)CC(=O)OC[C@@H]1C[C@@H](OC(=O)CC(COC(=O)CCCCCCCC)COC(=O)CCCCCCCC)CN1C(=O)OCCN1CCCCC1 [CICL-207-119],measured pKa in formulation (prediction),[1],close to the desired pKa=6-7 midpoint
"CCCCCCCCC(=O)OCC(COC(=O)CCCCCCCC)CC(=O)OC[C@@H]1C[C@@H](OC(=O)CC(COC(=O)CCCCCCCC)COC(=O)CCCCCCCC)CN1C(=O)SCCN(C)C [CICL-217, 2-(2-(((2S,4R)-1-(((2-(dimethylamino)ethyl)thio)carbonyl)-4-((4-(nonanoyloxy)-3-((nonanoyloxy)methyl)butanoyl)oxy)pyrrolidin-2-yl)methoxy)-2-oxoethyl)propane-1,3-diyl dinonanoate]",measured pKa (in tLNP formulation),[2],fell outside the range of 6 to 7
same,performance of tLNP: transfection rate and expression level (MESF),splenic T cells,3 of the 4 poorest performing tLNP
CCCCCCCCC(=O)OCC(COC(=O)CCCCCCCC)CC(=O)OC[C@@H]1C[C@@H](OC(=O)CC(COC(=O)CCCCCCCC)COC(=O)CCCCCCCC)CN1C(=O)OCCCN1CCC(O)CC1 [CICL-207-122],measured pKa in formulation (prediction),[1],close to the desired pKa=6-7 midpoint
"CCCCCCCCC(=O)OCC(COC(=O)CCCCCCCC)CC(=O)OCCN(CCOC(=O)CC(COC(=O)CCCCCCCC)COC(=O)CCCCCCCC)C(=O)OCCN(C)C [CICL-1, reference compound]",transfection rate for liver Kupffer cells (CD45+/CD11+),[6],~6%
"CCCCCCCCC(=O)OCC(COC(=O)CCCCCCCC)CC(=O)OC[C@H]1C[C@H](OC(=O)CC(COC(=O)CCCCCCCC)COC(=O)CCCCCCCC)CN1C(=O)OCCN(C)C [CICL-225, 2-(2-(((2R,4S)-1-((2-(dimethylamino)ethoxy)carbonyl)-4-((4-(nonanoyloxy)-3-((nonanoyloxy)methyl)butanoyl)oxy)pyrrolidin-2-yl)methoxy)-2-oxoethyl)propane-1,3-diyl dinonanoate]","effect of ionizable cationic lipid content (50%, 58%, 62%, 65%) on transfection rate",splenic T cells,greater in both types of liver cells
"CCCCCCCCC(=O)OCC(COC(=O)CCCCCCCC)CC(=O)OC[C@@H]1C[C@H](OC(=O)CC(COC(=O)CCCCCCCC)COC(=O)CCCCCCCC)CN1C(=O)N1CCN(C)CC1 [CICL-239, 2-(2-(((2S,4S)-1-(4-methylpiperazine-1-carbonyl)-4-((4-(nonanoyloxy)-3-((nonanoyloxy)methyl)butanoyl)oxy)pyrrolidin-2-yl)methoxy)-2-oxoethyl)propane-1,3-diyl dinonanoate]",pKa,[2]; [8],6.25
same,pKa,[2]; [7],6.25

# — patent US20250127728A1, “Constrained Ionizable Cationic Lipids and Lipid Nanoparticles” (CAPSTAN THERAPEUTICS, INC., priority 2023, published 2025)
